Some test systems named below: A498; A549; ACHN; BT-549; CCRF-CEM; Hs-578T; IGROV-1; KM12; M14; NCI-H226; NCI-H23; OVCAR-5; OVCAR-8; PC-3; SK-MEL-2; SK-MEL-5; UACC-257; NCI-H522; SR.
What all share (assay): growth of human tumour cells (NCI), 48 h

This note sets out measurements from ChEMBL document CHEMBL1201862, “PubChem BioAssay data set” (2004).

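Cells were grown in 96-well plates and exposed to each compound for 48 hours at five concentrations; endpoints were interpolated linearly between bracketing concentrations, or set to the highest concentration if not reached. Abbreviation: GI50, concentration required for 50% inhibition of growth.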 Activity calls are given as the source filed them. No stated cut-off is given here; in the data, active = GI50 up to about 1.1 µM and inactive = higher.

`Cc1ccc(C2(c3ccc(Cl)cc3)c3ccccc3C3=NCCN32)cc1` (stereo unspecified): the GI50 with A498 is 4.92 µM (inactive); in the experiment with A549, 11.1 µM (inactive); in the experiment on ACHN, 6.93 µM (inactive); with BT-549, 12.6 µM (inactive); in the experiment on CCRF-CEM it was 4.5 µM (inactive); with Hs-578T it was 14.2 µM (inactive). The GI50 in the experiment with IGROV-1 is 2.15 µM (inactive); in the experiment with KM12, 10.7 µM (inactive); in the experiment on M14, 3.7 µM (inactive); with NCI-H226, 16.3 µM (inactive); in the experiment on NCI-H23, 14.3 µM (inactive); with OVCAR-5, 12.5 µM (inactive). The GI50 is 14.5 µM (inactive) with OVCAR-8; 8.3 µM (inactive) in the experiment on PC-3; 12.2 µM (inactive) with SK-MEL-2; 10.9 µM (inactive) with SK-MEL-5; 6.55 µM (inactive) with UACC-257.
As to `CC1OC(OC2C(O[C@@H]3C[C@@H]4CC[C@@H]5[C@H](CC[C@]6(C)[C@@H]7[C@H](C[C@@H]56)O[C@]5(CC[C@@H](C)CO5)[C@H]7C)[C@@]4(C)C[C@H]3O)OC(CO)C(OC3OC(CO)C(O)C(O)C3O)C2O)C(O)C(O)C1O` (stereo partly specified), the GI50 with A498 was 1.71 µM (inactive); in the experiment on A549, 1.57 µM (inactive); in the experiment on ACHN, 1.79 µM (inactive); in the experiment on BT-549, 2.23 µM (inactive); with CCRF-CEM, 1.92 µM (inactive); with Hs-578T, 2.02 µM (inactive). For the same molecule, the GI50 in the experiment with IGROV-1 was 1.14 µM (inactive); with KM12, 1.98 µM (inactive); in the experiment with M14, 1.69 µM (inactive); in the experiment with NCI-H226, 1.44 µM (inactive); with NCI-H23 it was 2.03 µM (inactive); in the experiment on NCI-H522, 1.1 µM (active). The GI50 with OVCAR-5 was 1.59 µM (inactive); in the experiment with OVCAR-8 it was 1.52 µM (inactive); in the experiment with PC-3, 1.52 µM (inactive); in the experiment with SK-MEL-2 it was 1.74 µM (inactive); in the experiment on SK-MEL-5, 1.55 µM (inactive); in the experiment with UACC-257, 1.87 µM (inactive).
Turning to `N=c1c2c3n(c4c(=O)n(-c5ccccc5)c(=S)n(c(=O)n1-c1ccccc1)c24)CCCCC3`, the GI50 was > 96.2 µM (inactive) in the experiment on A498; > 100 µM (inactive) with A549; > 100 µM (inactive) with ACHN; > 100 µM (inactive) in the experiment on BT-549; > 100 µM (inactive) in the experiment on CCRF-CEM; > 100 µM (inactive) in the experiment on Hs-578T. The GI50 in the experiment on IGROV-1, in the experiment on KM12, with M14, with NCI-H226, in the experiment on NCI-H23 and in the experiment on NCI-H522 was > 100 µM (inactive) throughout. The GI50 in the experiment on OVCAR-5, with OVCAR-8, in the experiment with PC-3, in the experiment on SK-MEL-2, with SK-MEL-5 and with UACC-257 was > 100 µM (inactive) in each case.
With `CN1CCN(C(=S)N(C(=O)c2cccs2)c2ccccc2)CC1`, the GI50 with A549, with ACHN, in the experiment on BT-549, in the experiment on CCRF-CEM, with Hs-578T and in the experiment on IGROV-1 was > 100 µM (inactive) in each case. For the same molecule, the GI50 in the experiment with KM12 is > 100 µM (inactive); in the experiment on M14, > 100 µM (inactive); in the experiment with NCI-H226, > 100 µM (inactive); in the experiment on NCI-H23, > 100 µM (inactive); in the experiment with NCI-H522, > 100 µM (inactive); in the experiment on OVCAR-5, 94.6 µM (inactive). The GI50 in the experiment on OVCAR-8, in the experiment with SK-MEL-2, with SK-MEL-5, in the experiment on SR and in the experiment on UACC-257 was > 100 µM (inactive) throughout.
Consider `Oc1ccc(SCc2cc(O)ccc2O)cc1`, for which the GI50 is 34 µM (inactive) in the experiment with A498; 41.3 µM (inactive) in the experiment on A549; 13.7 µM (inactive) in the experiment with ACHN; 3.81 µM (inactive) with BT-549; 1.79 µM (inactive) in the experiment on CCRF-CEM; 27.9 µM (inactive) in the experiment on Hs-578T. For the same molecule, the GI50 with IGROV-1 was 10.1 µM (inactive); with KM12, 17.5 µM (inactive); in the experiment with M14, 18.4 µM (inactive); with NCI-H226 it was 9.42 µM (inactive); in the experiment with NCI-H23 it was 28.5 µM (inactive); in the experiment with NCI-H522, 1.79 µM (inactive). For the same molecule, the GI50 was 20.4 µM (inactive) with OVCAR-5; 16.5 µM (inactive) with OVCAR-8; 6.1 µM (inactive) in the experiment with PC-3; 14.9 µM (inactive) in the experiment with SK-MEL-2; 10 µM (inactive) with SK-MEL-5; 13.9 µM (inactive) with UACC-257.
Take `CCOC(=O)C(=[N+]=[N-])C(=O)Nc1nn2nnnc2c2ccccc12`: the GI50 in the experiment with A498, with A549, in the experiment with ACHN, with BT-549, in the experiment with CCRF-CEM and in the experiment on IGROV-1 was > 100 µM (inactive) throughout. Moreover, the GI50 in the experiment with KM12, in the experiment with M14, with NCI-H226, with NCI-H23, with NCI-H522 and in the experiment with OVCAR-5 was > 100 µM (inactive) throughout. Further, the GI50 in the experiment with OVCAR-8, in the experiment on PC-3, with SK-MEL-2, in the experiment on SK-MEL-5, in the experiment on SR and with UACC-257 was > 100 µM (inactive) each time.
Regarding `CC(C)(C)OC(=O)N(CCCCNCc1ccc2ccccc2c1)CCCNCc1ccc2ccccc2c1`, the GI50 with A498 is 1.91 µM (inactive); in the experiment with A549, 1.81 µM (inactive); with ACHN, 1.92 µM (inactive); in the experiment with BT-549 it was 1.73 µM (inactive); with CCRF-CEM it was 1.22 µM (inactive); in the experiment on Hs-578T, 1.77 µM (inactive). For the same molecule, the GI50 is 1.64 µM (inactive) in the experiment on IGROV-1; 1.3 µM (inactive) in the experiment with KM12; 1.96 µM (inactive) in the experiment with M14; 1.64 µM (inactive) in the experiment with NCI-H226; 1.85 µM (inactive) with NCI-H23; 1.58 µM (inactive) in the experiment with NCI-H522. In addition, the GI50 with OVCAR-5 is 1.67 µM (inactive); in the experiment with OVCAR-8, 1.67 µM (inactive); with PC-3, 1.94 µM (inactive); in the experiment on SK-MEL-2 it was 2.06 µM (inactive); with SK-MEL-5, 1.74 µM (inactive); in the experiment on UACC-257 it was 1.91 µM (inactive).
`O=C1ON=C2C3CC4CC12CC1(C3)C(=O)ON=C41`: the GI50 with A498, in the experiment on A549, in the experiment on ACHN, in the experiment with BT-549, with CCRF-CEM and in the experiment with IGROV-1 was > 100 µM (inactive) throughout. Moreover, the GI50 in the experiment with KM12, in the experiment with M14, with NCI-H226, in the experiment on NCI-H23, in the experiment on NCI-H522 and in the experiment on OVCAR-5 was > 100 µM (inactive) each time. Moreover, the GI50 in the experiment with OVCAR-8, with PC-3, in the experiment with SK-MEL-2, in the experiment with SK-MEL-5, in the experiment on SR and with UACC-257 was > 100 µM (inactive) throughout.
Consider `COc1cc(OC)cc(-c2cc(=O)c3c(OC)c(OC)c(OC)c(OC)c3o2)c1`, for which the GI50 in the experiment on A498 is 23 µM (inactive); in the experiment on A549, 33.8 µM (inactive); in the experiment with ACHN, 27.2 µM (inactive); in the experiment with BT-549, 41.1 µM (inactive); in the experiment on CCRF-CEM, 20.5 µM (inactive); with Hs-578T, 29.3 µM (inactive). For the same molecule, the GI50 in the experiment on IGROV-1 was 32.2 µM (inactive); with M14 it was 37.2 µM (inactive); with NCI-H226 it was 32.1 µM (inactive); with NCI-H23 it was 52.1 µM (inactive); with NCI-H522 it was 21.2 µM (inactive); in the experiment on OVCAR-5, 47.3 µM (inactive). In addition, the GI50 in the experiment on OVCAR-8 was 33.6 µM (inactive); in the experiment on SK-MEL-2 it was 18 µM (inactive); in the experiment with SK-MEL-5, 19.8 µM (inactive); in the experiment with SR it was > 100 µM (inactive); with UACC-257 it was 39.2 µM (inactive).
For `CCC1OC2(C)CC(C#N)(C#N)C1(C#N)C(=N)O2` (stereo unspecified), the GI50 with A498, in the experiment on A549, in the experiment on ACHN, in the experiment on BT-549, in the experiment on CCRF-CEM and with Hs-578T was > 100 µM (inactive) in each case. Moreover, the GI50 in the experiment on IGROV-1, in the experiment on KM12, with M14, in the experiment on NCI-H23, in the experiment with OVCAR-5 and in the experiment on PC-3 was > 100 µM (inactive) throughout. Also, the GI50 in the experiment with SK-MEL-2, in the experiment with SK-MEL-5 and in the experiment with UACC-257 was > 100 µM (inactive) throughout.
With `Cc1cc(Cl)ccc1NC(=O)/C(CC(=O)CC(c1ccccc1)c1c(O)c2ccccc2oc1=O)=N\O` (stereo unspecified), the GI50 with A549 is > 100 µM (inactive); in the experiment with ACHN it was > 100 µM (inactive); in the experiment with BT-549, > 100 µM (inactive); with CCRF-CEM, 7.87 µM (inactive); in the experiment on Hs-578T, > 100 µM (inactive); in the experiment on IGROV-1, > 100 µM (inactive). Also, the GI50 with KM12, in the experiment on M14, with NCI-H226, in the experiment with NCI-H23, with NCI-H522 and in the experiment with OVCAR-5 was > 100 µM (inactive) in each case. Also, the GI50 with OVCAR-8, with PC-3, in the experiment on SK-MEL-2, in the experiment with SK-MEL-5 and with UACC-257 was > 100 µM (inactive) in each case.
